In one assay the target is T1, EGFR (Homo sapiens, UniProt P00533).
T1 construct: The intracellular portion of EGFR started at nucleotide 2189 (corresponding to amino acid 667) and ended at the termination codon; made in house; host or cells: Sf9 insect cells (baculovirus)
The assay is described as follows: EGFR Kinase Assay. The conditions noted are these: for pIC50: GST-EGFR, ATP 5 μM; for inhibition at 2 µM: test concentration of 2 μM, compounds without an IC50, read-out: EGFR inhibition in percent. The class given is biochemical. The method in brief:
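GST-fused human EGFR intracellular domain (from aa 667), Sf9-expressed, phosphorylated biotinylated polyGluTyr with 5 μM ATP plus γ-33P ATP in Tris pH 8.0, MgCl2, vanadate, 1 mM DTT, 1 h at 30 °C. Streptavidin Flashplate scintillation read; triplicate 16-point half-log series from 200 uM; IC50 from % inhibition vs log concentration, else % inhibition at 2 μM.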

In assay [1] the test system is HeLa cervical adenocarcinoma. The assay is described as follows: Cell Proliferation Inhibition Assay, Hela (ATP Lite). The class given is cell-based. The conditions noted are these: Homo sapiens, ATP-Lite method. An excerpt: Cell Proliferation Inhibition Assay
The ability of a test compound to inhibit unregulated cell proliferation may be determined by measuring incorporation of ^14C-labelled thymidine into newly synthesized DNA within cell lines derived from carcinomas originating from several tissues. Accordingly, the effect of a test compound on proliferation of cells with a variety of phenotypes may be determined.
Carcinoma cell lines used include the HeLa cervical adenocarcinoma from the American Type Culture Collection (ATCC Cat. #CCL2), A375 malignant melanoma (ATCC Cat. #CRL-1619), HCT-116 colon carcinoma (ATCC Cat. #CCL-247), SKBR3 breast carcinoma (ATCC Cat. #HTB-30) and BT474 breast carcinoma (ATCC Cat. #HTB-20).
The carcinoma cells were trypsinized and counted. The cells (3000-8000 count) were added to each well of a 96-well CytoStar tissue culture treated scintillating microplate (Amersham #RPNQ0160) in complete medium (100 μL) and the plate was then incubated in complete medium for 24 hrs at 37° C. in an inert atmosphere containing 5% CO2.
Test compound (1 μL) in 100% DMSO was added to the plate test-wells with DMSO only added to control-wells. The plate was incubated in complete medium for a second 24 hr period at 37° C. in an atmosphere containing 5% CO2.
Cell proliferation of the Hela cell line was measured using the ATP-Lite method as described in the ATP Lite Kit (Perkin-Elmer Kit Number 6106941) or the C^14 method as described above. Cell proliferation of the other cell lines was measured using the C^14 method.

The target in another assay is T2, Lyn kinase (human) (Homo sapiens, UniProt P07948).
T2 construct: purchased Upstate Biotechnology, Lake Placid, N.Y
T2 sequence (P07948 whole entry): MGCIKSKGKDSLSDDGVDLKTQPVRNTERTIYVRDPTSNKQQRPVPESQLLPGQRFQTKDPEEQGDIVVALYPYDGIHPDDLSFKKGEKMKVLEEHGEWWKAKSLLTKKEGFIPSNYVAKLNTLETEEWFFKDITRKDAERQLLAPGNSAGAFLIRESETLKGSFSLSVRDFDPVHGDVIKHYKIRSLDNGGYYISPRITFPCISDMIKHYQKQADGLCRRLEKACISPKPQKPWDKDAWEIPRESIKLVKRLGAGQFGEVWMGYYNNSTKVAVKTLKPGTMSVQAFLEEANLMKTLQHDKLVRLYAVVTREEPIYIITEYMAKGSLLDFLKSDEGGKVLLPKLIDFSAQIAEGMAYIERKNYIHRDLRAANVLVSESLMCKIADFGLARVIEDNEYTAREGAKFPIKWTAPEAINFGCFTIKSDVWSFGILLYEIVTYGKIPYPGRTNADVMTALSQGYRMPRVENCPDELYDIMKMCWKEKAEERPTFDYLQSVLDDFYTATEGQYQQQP
The assay is described as follows: Lyn Kinase Assay. The conditions noted are these: for inhibition at 2 µM / % Inhibition (Lyn): test concentration of 2 μM; for % Inhibition (Lyn): 2 µM. The class given is biochemical. In short, it runs like this: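 Radiometric filter-binding assay with recombinant human Lyn, poly(Glu,Tyr) substrate (0.1 mg/mL final), 5 μM ATP plus γ-33P-ATP in MOPS pH 7.5/Mg acetate buffer; 40 min at 30 °C, stopped with phosphoric acid, counted by scintillation. Reported as percent inhibition at 2 μM, with IC50 (μM) where determined.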

pIC50: −log10 of the molar value.

T1 sequence (P00533 669-1210 limits assumed): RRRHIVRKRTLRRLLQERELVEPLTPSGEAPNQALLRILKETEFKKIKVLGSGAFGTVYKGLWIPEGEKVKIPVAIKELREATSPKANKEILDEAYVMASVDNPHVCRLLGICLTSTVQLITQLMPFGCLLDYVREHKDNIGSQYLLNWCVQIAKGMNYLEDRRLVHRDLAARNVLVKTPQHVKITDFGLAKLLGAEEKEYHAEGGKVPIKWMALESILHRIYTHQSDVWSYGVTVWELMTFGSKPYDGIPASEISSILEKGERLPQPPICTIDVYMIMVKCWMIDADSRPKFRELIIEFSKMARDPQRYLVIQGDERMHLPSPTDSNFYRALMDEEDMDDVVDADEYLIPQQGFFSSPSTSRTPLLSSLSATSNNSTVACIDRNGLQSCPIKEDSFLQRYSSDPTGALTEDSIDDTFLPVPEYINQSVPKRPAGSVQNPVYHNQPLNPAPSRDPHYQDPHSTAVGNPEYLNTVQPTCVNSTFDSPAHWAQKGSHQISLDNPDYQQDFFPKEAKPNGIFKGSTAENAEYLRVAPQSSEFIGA

As a reminder, the pIC50 is the negative decadic logarithm of the IC50, by convention in mol/L. Regarding `O=C(Nc1ccc(CN2CCOCC2)cc1)c1sc2ncnc3c2c1NC(=O)N3c1cccc(Br)c1` [Cpd 36, 5-(3-bromo-phenyl)-4-oxo-4,5-dihydro-3H-1-thia-3,5,6,8-tetraaza-acenaphthylene-2-carboxylic acid (4-morpholin-4-ylmethyl-phenyl)-amide], the pIC50 at EGFR was 6.74; in assay [1] it was 4.00.

The inhibition is the drop in the measured response relative to a control, in per cent. Take `O=C(O)c1sc2ncnc3c2c1NC(=O)N3c1ccc(OCc2ccccn2)c(Cl)c1` [Cpd 38, 5-[3-chloro-4-(pyridin-2-ylmethoxy)-phenyl]-4-oxo-4,5-dihydro-3H-1-thia-3,5,6,8-tetraaza-acenaphthylene-2-carboxylic acid]: the figures for the negative-log IC50 (pIC50) (against EGFR; in assay [1]) were 6.04 and 4.00, respectively. The inhibition at 2 µM at Lyn kinase (human) is -16%.

Turning to `COc1ccc(NC(=O)c2sc3ncnc4c3c2NC(=O)N4c2ccc(OCc3ccccn3)c(Cl)c2)cc1OC` [Cpd 48, 5-[3-chloro-4-(pyridin-2-ylmethoxy)-phenyl]-4-oxo-4,5-dihydro-3H-1-thia-3,5,6,8-tetraaza-acenaphthylene-2-carboxylic acid (3,4-dimethoxy-phenyl)-amide], the negative-log IC50 (pIC50) against EGFR was 7.21; in assay [1] it was 4.00. Also, the inhibition at 2 µM against Lyn kinase (human) is 14%.

`O=C(Nc1ccc(CN2CCOCC2)cc1)c1sc2ncnc3c2c1NC(=O)N3c1ccc(OCc2ccccn2)c(Cl)c1` [Cpd 52, 5-[3-chloro-4-(pyridin-2-ylmethoxy)-phenyl]-4-oxo-4,5-dihydro-3H-1-thia-3,5,6,8-tetraaza-acenaphthylene-2-carboxylic acid (4-morpholin-4-ylmethyl-phenyl)-amide]: the negative-log IC50 (pIC50) is 7.29 against EGFR and 4.57 in assay [1]. Moreover, at Lyn kinase (human), the inhibition at 2 µM turned out to be 16.2%.

With `O=C(Nc1ccc(NCCCN2CCOCC2)nc1)c1sc2ncnc3c2c1NC(=O)N3c1cccc(Br)c1` [Cpd 64, 5-(3-bromo-phenyl)-4-oxo-4,5-dihydro-3H-1-thia-3,5,6,8-tetraaza-acenaphthylene-2-carboxylic acid [6-(3-morpholin-4-yl-propylamino)-pyridin-3-yl]-amide], the pIC50 on EGFR is 6.80; in assay [1], 5.00. On Lyn kinase (human), the inhibition at 2 µM stood at 26%.

Compound `COc1cc(NC(=O)c2sc3ncnc4c3c2NC(=O)N4c2ccc(Oc3ccccc3)cc2)ccc1OCCN1CCCCC1` [Cpd 100, 4-oxo-5-(4-phenoxy-phenyl)-4,5-dihydro-3H-1-thia-3,5,6,8-tetraaza-acenaphthylene-2-carboxylic acid [3-methoxy-4-(2-piperidin-1-yl-ethoxy)-phenyl]-amide] showed a pIC50 on EGFR of 7.82. Besides, at Lyn kinase (human), the inhibition at 2 µM was found to be 40% and the “% Inhibition (Lyn)” value came out at 50%.

Turning to `CCOC(=O)c1sc2ncnc3c2c1NC(=O)N3c1ccc(Oc2ccc(F)cc2)cc1` [Cpd 101, 5-[4-(4-fluoro-phenoxy)-phenyl]-4-oxo-4,5-dihydro-3H-1-thia-3,5,6,8-tetraaza-acenaphthylene-2-carboxylic acid ethyl ester], the inhibition at 2 µM at EGFR is 18%. On Lyn kinase (human), the inhibition at 2 µM is 3% and the “% Inhibition (Lyn)” value is listed as 6%.

For `CCOC(=O)c1sc2ncnc3c2c1NC(=O)N3c1ccc(C)c(Br)c1` [Cpd 102, 5-(3-bromo-4-methyl-phenyl)-4-oxo-4,5-dihydro-3H-1-thia-3,5,6,8-tetraaza-acenaphthylene-2-carboxylic acid ethyl ester], the inhibition at 2 µM on EGFR came out at 17%; at Lyn kinase (human), 8%. The “% Inhibition (Lyn)” value at Lyn kinase (human) was determined as 13%.

Take `O=C(Nc1ccc(CN2CCOCC2)cc1)c1sc2ncnc3c2c1NC(=O)N3c1c(Cl)cccc1Cl` [Cpd 104, 5-(2,6-dichloro-phenyl)-4-oxo-4,5-dihydro-3H-1-thia-3,5,6,8-tetraaza-acenaphthylene-2-carboxylic acid (4-morpholin-4-ylmethyl-phenyl)-amide]: the inhibition at 2 µM on EGFR amounted to 41%. Moreover, on Lyn kinase (human), the inhibition at 2 µM was found to be 70% and the “% Inhibition (Lyn)” value is given as 69%.

Regarding `Cc1ccc(N2C(=O)Nc3c(C(=O)Nc4ccc(CN5CCOCC5)cc4)sc4ncnc2c34)cc1Br` [Cpd 108, 5-(3-bromo-4-methyl-phenyl)-4-oxo-4,5-dihydro-3H-1-thia-3,5,6,8-tetraaza-acenaphthylene-2-carboxylic acid (4-morpholin-4-ylmethyl-phenyl)-amide], the negative-log IC50 (pIC50) against EGFR was 7.37. The inhibition at 2 µM on Lyn kinase (human) was 69%.

The compound `Cc1ccc(Br)cc1N1C(=O)Nc2c(C(=O)Nc3ccc(CN4CCOCC4)cc3)sc3ncnc1c23` [Cpd 109, 5-(5-bromo-2-methyl-phenyl)-4-oxo-4,5-dihydro-3H-1-thia-3,5,6,8-tetraaza-acenaphthylene-2-carboxylic acid (4-morpholin-4-ylmethyl-phenyl)-amide] had a negative-log IC50 (pIC50) against EGFR of 6.46. Besides, the inhibition at 2 µM against Lyn kinase (human) was determined as 75%.

On EGFR, `O=C(Nc1ccc(CN2CCOCC2)cc1)c1sc2ncnc3c2c1NC(=O)N3c1ccc(Oc2ccc(F)cc2)cc1` [Cpd 110, 5-[4-(4-fluoro-phenoxy)-phenyl]-4-oxo-4,5-dihydro-3H-1-thia-3,5,6,8-tetraaza-acenaphthylene-2-carboxylic acid (4-morpholin-4-ylmethyl-phenyl)-amide] gave a negative-log IC50 (pIC50) of 7.47. Moreover, the inhibition at 2 µM against Lyn kinase (human) is 21%.

`O=C(Nc1ccc(CN2CCOCC2)cc1)c1sc2ncnc3c2c1NC(=O)N3c1ccc(Oc2ccccc2)c(F)c1` [Cpd 113, 5-(3-fluoro-4-phenoxy-phenyl)-4-oxo-4,5-dihydro-3H-1-thia-3,5,6,8-tetraaza-acenaphthylene-2-carboxylic acid (4-morpholin-4-ylmethyl-phenyl)-amide] gave a negative logarithm of the IC50 (pIC50) on EGFR of 7.68. Further, at Lyn kinase (human), the inhibition at 2 µM was 60% and the “% Inhibition (Lyn)” value was 55%.

At EGFR, `Cc1ccc(N2C(=O)Nc3c(C(=O)NC4CCN(C)CC4)sc4ncnc2c34)cc1Br` [Cpd 116, 5-(3-bromo-4-methyl-phenyl)-4-oxo-4,5-dihydro-3H-1-thia-3,5,6,8-tetraaza-acenaphthylene-2-carboxylic acid (1-methyl-piperidin-4-yl)-amide] had a pIC50 of 6.84. For the same compound, the inhibition at 2 µM at Lyn kinase (human) is -2%.

Take `Cc1ccc(Br)cc1N1C(=O)Nc2c(C(=O)NC3CCN(C)CC3)sc3ncnc1c23` [Cpd 117, 5-(5-bromo-2-methyl-phenyl)-4-oxo-4,5-dihydro-3H-1-thia-3,5,6,8-tetraaza-acenaphthylene-2-carboxylic acid (1-methyl-piperidin-4-yl)-amide]: the pIC50 at EGFR was 5.75. In addition, at Lyn kinase (human), the inhibition at 2 µM was determined as 12%.

For the compound `CN1CCC(NC(=O)c2sc3ncnc4c3c2NC(=O)N4c2ccc(Oc3ccc(F)cc3)cc2)CC1` [Cpd 118, 5-[4-(4-fluoro-phenoxy)-phenyl]-4-oxo-4,5-dihydro-3H-1-thia-3,5,6,8-tetraaza-acenaphthylene-2-carboxylic acid (1-methyl-piperidin-4-yl)-amide], the negative logarithm of the IC50 (pIC50) against EGFR was 6.88. Also, the inhibition at 2 µM against Lyn kinase (human) amounted to 12%.

Turning to `O=C(Nc1ccc(CN2CCOCC2)cc1)c1sc2ncnc3c2c1NC(=O)N3c1ccc(N2CCOCC2)cc1` [Cpd 123, 5-(4-morpholin-4-yl-phenyl)-4-oxo-4,5-dihydro-3H-1-thia-3,5,6,8-tetraaza-acenaphthylene-2-carboxylic acid (4-morpholin-4-ylmethyl-phenyl)-amide], the inhibition at 2 µM at EGFR was found to be 11%; at Lyn kinase (human) it was 55%. Further, the pIC50 on Lyn kinase (human) (value in parentheses) was 5.84.

For `O=C(Nc1ccc(CN2CCCCC2)cc1)c1sc2ncnc3c2c1NC(=O)N3c1ccc(Sc2ccccc2)cc1` [Cpd 169, 4-oxo-5-(4-phenylsulfanyl-phenyl)-4,5-dihydro-3H-1-thia-3,5,6,8-tetraaza-acenaphthylene-2-carboxylic acid (4-piperidin-1-ylmethyl-phenyl)-amide], the pIC50 was 7.54 against EGFR and 5.37 in assay [1].

On to `O=C(Nc1ccc(CN2CCOCC2)cc1)c1sc2ncnc3c2c1NC(=O)N3c1ccc(Sc2ccccc2)cc1` [Cpd 178, 4-oxo-5-(4-phenylsulfanyl-phenyl)-4,5-dihydro-3H-1-thia-3,5,6,8-tetraaza-acenaphthylene-2-carboxylic acid (4-morpholin-4-ylmethyl-phenyl)-amide], for which the pIC50 against EGFR is 7.11; in assay [1], 4.27.

Source of the values: US7579356B2, “Thia-tetraazaacenaphthylene kinase inhibitors” (Janssen Pharmaceutica NV, priority 2005, dated 2009).
